Positions count from the first letter of the chain named. “Also recorded” adds a separate entry of the source. Like-named read-outs stand apart in the source and are kept apart here.
Legend:
GFP-AR = biological target: T1, GFP-AR (Homo sapiens, UniProt P10275); test: Confocal microscopy of PC3 GFP-AR cells (nuclear hyperspeckling); type: cell-based; settings: 10 μM enantiomer 180 min, 1 nM R1881 90 min
T1 construct: expressed in transfected cells; host or cells: PC3
T1 sequence (P10275 1-920): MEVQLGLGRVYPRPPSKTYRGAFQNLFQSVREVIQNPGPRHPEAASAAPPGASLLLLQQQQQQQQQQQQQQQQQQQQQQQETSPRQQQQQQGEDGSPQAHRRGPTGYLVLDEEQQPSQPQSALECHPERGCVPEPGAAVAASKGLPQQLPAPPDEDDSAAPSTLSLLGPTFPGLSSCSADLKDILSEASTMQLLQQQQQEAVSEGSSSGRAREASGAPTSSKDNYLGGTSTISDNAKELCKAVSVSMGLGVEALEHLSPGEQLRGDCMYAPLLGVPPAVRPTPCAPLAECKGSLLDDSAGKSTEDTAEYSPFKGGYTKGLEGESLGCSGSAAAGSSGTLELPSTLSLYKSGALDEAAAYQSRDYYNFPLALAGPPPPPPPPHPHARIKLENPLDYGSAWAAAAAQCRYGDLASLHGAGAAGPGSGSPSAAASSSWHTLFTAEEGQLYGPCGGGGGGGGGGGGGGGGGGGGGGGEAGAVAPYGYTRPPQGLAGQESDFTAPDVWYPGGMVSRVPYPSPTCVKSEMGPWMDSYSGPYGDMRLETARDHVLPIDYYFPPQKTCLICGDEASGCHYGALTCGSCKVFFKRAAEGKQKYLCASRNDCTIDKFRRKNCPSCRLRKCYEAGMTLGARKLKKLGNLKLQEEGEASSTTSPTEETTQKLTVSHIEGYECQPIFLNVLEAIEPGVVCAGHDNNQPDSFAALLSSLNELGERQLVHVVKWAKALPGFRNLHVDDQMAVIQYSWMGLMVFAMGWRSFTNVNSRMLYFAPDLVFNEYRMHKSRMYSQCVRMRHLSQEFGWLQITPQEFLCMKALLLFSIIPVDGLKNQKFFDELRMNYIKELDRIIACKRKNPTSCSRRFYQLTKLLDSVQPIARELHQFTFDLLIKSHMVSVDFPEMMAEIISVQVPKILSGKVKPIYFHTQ
Protocol: Initial compound testing was performed with PC3 GFP-AR cells and confocal microscopy. First, we tested purified BMS enantiomers (FIG. 6A).
(§1) PC3 and VCaP cell lines were obtained from ATCC and cultured as recommended. Generation and culture of PC3 GFP-AR cells were described previously (14). ARE-luciferase cells were generated using Cignal Lenti AR Reporter (Qiagen). Cell lines were authenticated using NIST-approved short tandem repeat DNA profiling and tested negative for mycoplasma. Drug treatments were conducted after overnight culture in phenol red-free media supplemented with charcoal:dextran stripped FBS.
Confocal Microscopy. PC3 GFP-AR cells were seeded and stained overnight with SiR-DNA ([…]).

[1] = system: AR-regulated genes in VCaP cells; test: RT-qPCR array of AR target genes in VCaP cells; type: cell-based; settings: 82 AR target genes, vs NTC and DHT
Protocol: To test for corresponding transcriptional activation, we performed assays in cells expressing ARE-luciferase. […] Next, we examined gene expression in VCaP cells, a hormone-responsive but independent model of CRPC highly expressing AR.
RT-qPCR Array. RNA was isolated using the Illustra RNAspin Mini Kit (GE Healthcare). RNA was transcribed to cDNA using RT2 First Strand Kit (Qiagen). RT-qPCR was performed using Biorad CFX Connect on a RT2 Profiler PCR Array Human Androgen Receptor Signaling Targets (Qiagen).

[2] = Microsome stability assay; type: in vitro ADME, human; settings: for toxic metabolite BMS-501949 detected in LCMS / active metabolite detected in LCMS: 10 μM drug; for toxic metabolite BMS-501949 detected in LCMS: 8 h incubation, o-fluoro-BMS-501949 for EITM-1707; for active metabolite detected in LCMS: Unnamed metabolite (predicted active) for EITM compounds, BMS-570511 for BMS-641988, 8 h; for half-life at 1 μM / microsomal CLint at 1 μM: human, pooled human liver microsomes, pH 7.4, liver microsomes; for half-life at 1 μM: 1 μM drug, read-out: T½; for microsomal CLint at 1 μM: read-out: rate of intrinsic clearance
Protocol: Microsome stability assays. In vitro metabolism was determined as described previously. Specifically, to measure metabolism of parent compounds, the higher throughput protocol was applied, in which 0.5 mg/ml pooled human liver microsomes (Sigma) were mixed with 1 μM drugs and phosphate buffer (0.1 M, pH 7.4) in 96-well plates. Enzymatic reactions were started by adding 1 mM NADPH (Sigma Aldrich) followed by incubation at 37° C. Fractions were quenched by transfer to ice-cold acetonitrile after the indicated incubation times. Samples were analyzed using liquid chromatography-mass spectrometry (LC/MS-MS). Rates of intrinsic clearance were determined from the amount of the parent compound consumed per min per mg of microsomal protein as described previously. To analyze accumulating metabolites, the basic protocol was used, and microsomes were incubated with 10 μM drugs for 8 h.

LNCaP cells = test: LNCaP cell viability assay (CellTiter-Glo); type: cell-based; settings: 1 and 10 μM drug + 60 pM R1881, 5 days
Protocol: LNCaP cell viability assay. Cells were seeded into 96-well fibronectin coated (1 ug/cm^2) plates (CellCarrier, PerkinElmer) at a density of 5,000 cells/well. […] Drug-treated cells were lysed with CellTiter-Glo 3D Cell Viability Assay (Promega) and transferred to white 96-well plates (Corning). Luminescence was measured utilizing GloMax 96 Microplate Luminometer (Promega). Analysis was conducted in the R statistical environment (v 3.6.0). […] Visualizations were facilitated by the ggplot2 package (v3.2.1), with standard error (S.E.) shown where appropriate.

AR T878A = biological target: T2, AR T878A (Homo sapiens, UniProt P10275, T878A); test: cell-based; type: cell-based
T2 construct: LNCaP cells expressing AR T878A; endogenous in cells; host or cells: LNCaP-luc (LNCaP stably carrying the Cignal Lenti AR Reporter)
T2 sequence (P10275 1-920 T878A): T1 sequence (P10275 1-920) with T878A
Source text: We generated a LNCaP cell line stably expressing luciferase controlled by androgen response elements (ARE-luciferase).
Cell Culture and Treatments. The LNCaP cell line were obtained from ATCC, cultured in RPMI1640 (Corning) supplemented with 10% heat-inactivated GemCell bovine serum (Gemini Bio-Products) and Penicillin-Streptomycin (Gemini Bio-Products). Cell lines stably expressing ARE-luciferase (LNCaP-luc) was generated using Cignal Lenti AR Reporter (Qiagen) and was continuously cultured with 500 ng/mL Puromycin (Gibco) for positive selection. Cells were maintained at 37° C. in a humidified incubator with 5% carbon dioxide. All cell lines were authenticated using NIST approved short tandem repeat (STR) DNA profiling performed by the University of Arizona Genetics Core and routinely tested negative for mycoplasma.
Luciferase assay. LNCaP-luc cells were seeded in clear flat bottom white polystyrene 96-well plates (Corning) at a density of 12,000 cells/well. […] Dose-response curves were fit using the delta method and t-distribution (n=1). Compounds are tested up to 10 μM.

VCaP cells = test: VCaP viability assay (CellTiter-Glo); type: cell-based
Protocol: as §1
Luminometer Assays. For ARE-luciferase, luciferase substrate was added to lysed cells after 24-h treatment. For viability, cells were lysed with CellTiter-Glo 3D Cell Viability Assay (Promega) after 6 d of treatment. Measurements were performed in 96-well plates (Corning) using a GloMax 96 Microplate Luminometer (Promega).

Structure (SMILES) | nuclear hyperspeckling, in words (GFP-AR) | AR-dependent gene expression, in words [1] | toxic metabolite BMS-501949 detected in LCMS [2] | active metabolite detected in LCMS [2] | half-life at 1 μM [2] | microsomal CLint at 1 μM [2] | LNCaP proliferation / viable cells, in words (LNCaP cells) | AR agonism / antagonism in LNCaP ARE-luciferase, in words (AR T878A) | EC50 (AR T878A) | ED50 (AR T878A) | Emax (AR T878A) | toxic metabolite BMS-501949 detected in LCMS ([2]; listed as (R)-EITM-1702) | R1881-induced growth, in words (VCaP cells; 10 μM drug + 1 nM R1881, 6-d treatment) | (S)-enantiomer fraction that halved the drug effect, cell viability (VCaP cells; 10 μM mixture + 1 nM R1881, 6 d, 95% CI (0.2%, 0.4%)) | (S)-enantiomer fraction that rescued the proliferation phenotype, cell viability (VCaP cells; 10 μM mixture + 1 nM R1881, 6 d, 95% CI (0.7%, 3.7%)) | IC50 (VCaP cells; Homo sapiens, VCaP) | Emax (AR T878A; LNCaP)
CCS(=O)(=O)N[C@H]1C[C@]2(C)O[C@@]1(C)[C@H]1C(=O)N(c3ccc(C#N)c(C(F)(F)F)c3)C(=O)[C@H]12 [(S)-BMS, N-((3aS,4S,5S,7S,7aR)-2-(4-cyano-3-(trifluoromethyl)phenyl)-4,7-dimethyl-1,3-dioxooctahydro-1H-4,7-epoxyisoindol-5-yl)ethanesulfonamide] | caused substantial hyperspeckling, comparable to that of R1881 |  |  |  |  |  |  |  |  |  |  |  |  |  |  |  | 
CC(O)c1cc(C(=O)N[C@H]2C[C@]3(C)O[C@@]2(C)[C@H]2C(=O)N(c4ccc(C#N)c(C(F)(F)F)c4F)C(=O)[C@H]23)n[nH]1 (stereo partly drawn) [(S)-EITM-1707, N-((3aS,4S,5S,7S,7aR)-2-(4-cyano-2-fluoro (trifluoromethyl)phenyl)-4,7-dimethyl-1,3-dioxooctahydro-1H-4,7-epoxyisoindol-5-yl)-5-(1-hydroxyethyl)-1H-pyrazole-3-carboxamide] |  | rescued the castration phenotype, mimicking DHT |  |  |  |  |  |  |  |  |  |  |  |  |  |  | 
CCS(=O)(=O)N[C@@H]1C[C@@]2(C)O[C@]1(C)[C@@H]1C(=O)N(c3ccc(C#N)c(C(F)(F)F)c3)C(=O)[C@@H]12 [BMS-641988, N-((3aR,4R,5R,7R,7aS)-2-(4-cyano-3-(trifluoromethyl)phenyl)-4,7-dimethyl-1,3-dioxooctahydro-1H-4,7-epoxyisoindol-5-yl)ethanesulfonamide, reference compound] | inhibited R1881-induced hyperspeckling |  | accumulated and yes | yes | 1.44 h | 10.1 µL/min/mg | promoted proliferation | potent agonist in LNCaP cells; also recorded: induced ARE-luciferase without addition of R1881 | 94 ± 22 nM | agonist | agonist |  |  |  |  |  | 
C[C@]12O[C@](C)(C[C@H]1NC(=O)c1cc[nH]n1)[C@H]1C(=O)N(c3ccc(C#N)c(C(F)(F)F)c3)C(=O)[C@H]12 [EITM-1702, N-((3aR,4R,5R,7R,7aS)-2-(4-cyano-3-(trifluoromethyl)phenyl)-4,7-dimethyl-1,3-dioxooctahydro-1H-4,7-epoxyisoindol-5-yl)-1H-pyrazole-3-carboxamide] |  |  | not detected | yes | 0.944 h | 15.3 µL/min/mg | almost phenocopying castrate conditions; also recorded: inhibited the growth of LNCaP prostate cancer cells | robust antagonistic activities without notable agonism | 570 nM |  |  | no | visibly suppressed R1881-induced growth | 0.3% | 2.2% | 540 nM | 8%

— patent publication US12552806B2, “Androgen receptor regulation by small molecule enantiomers” (University of Southern California, priority 2020, dated 2026)
